Laboratory results from ChEMBL document CHEMBL3102853, “Carbonic anhydrase inhibitors. Synthesis, and molecular structure of novel series N-substituted N'-(2-arylmethylthio-4-chloro-5-methylbenzenesulfonyl)guanidines and their inhibition of human cytosolic isozymes I and II and the transmembrane tumor-associated isozymes IX and XII” (Eur J Med Chem, 2014).
Activity calls are given as the source filed them. The rule behind the calls is not given here.

How the values were obtained:
CCRF-CEM = experiment: Cytotoxicity against human CCRF-CEM cells; format: functional
HL-60(TB) [1] = experiment: Cytotoxicity against human HL-60(TB) cells at 10 uM; format: functional; settings: read-out: GI
HCT-116 = experiment: Cytotoxicity against human HCT116 cells; format: functional
SW-620 = experiment: Cytotoxicity against human SW620 cells at 10 uM; format: functional; settings: read-out: GI
SNB-75 [2] = experiment: Cytotoxicity against human SNB75 cells; format: functional
SR [3] = experiment: Cytotoxicity against human SR cells; format: functional
A549 = experiment: Cytotoxicity against human A549 cells at 10 uM; format: functional; settings: read-out: GI
SNB-75 [4] = experiment: Cytotoxicity against human SNB75 cells at 10 uM; format: functional; settings: read-out: GI
HOP-92 [5] = experiment: Cytotoxicity against human HOP92 cells; format: functional
HL-60(TB) [6] = experiment: Cytotoxicity against human HL-60(TB) cells; format: functional
NCI/ADR-RES = experiment: Cytotoxicity against human NCI-ADR-RES cells at 10 uM; format: functional
SK-MEL-2 [7] = experiment: Cytotoxicity against human SK-MEL-2 cells at 10 uM; format: functional; settings: read-out: GI
A498 [8] = experiment: Cytotoxicity against human A498 cells at 10 uM; format: functional; settings: read-out: GI
LOX IMVI [9] = experiment: Cytotoxicity against human LOXIMVI cells; format: functional
HCC 2998 = experiment: Cytotoxicity against human HCC2998 cells; format: functional
NCI-H522 = experiment: Cytotoxicity against human NCI-H522 cells; format: functional
NCI-H460 [10] = experiment: Cytotoxicity against human NCI-H460 cells at 10 uM; format: functional; settings: read-out: GI
A498 [11] = experiment: Cytotoxicity against human A498 cells; format: functional
UACC-62 [12] = experiment: Cytotoxicity against human UACC62 cells at 10 uM; format: functional; settings: read-out: GI
COLO 205 = experiment: Cytotoxicity against human COLO205 cells; format: functional
K562 [13] = experiment: Cytotoxicity against human K562 cells at 10 uM; format: functional; settings: read-out: GI
MDA-MB-468 [14] = experiment: Cytotoxicity against human MDA-MB-468 cells; format: functional
SNB-19 = experiment: Cytotoxicity against human SNB19 cells; format: functional
RPMI-8226 [15] = experiment: Cytotoxicity against human RPMI8226 cells; format: functional
PC-3 [16] = experiment: Cytotoxicity against human PC3 cells at 10 uM; format: functional; settings: read-out: GI
MCF7 [17] = experiment: Cytotoxicity against human MCF7 cells; format: functional
SR [18] = experiment: Cytotoxicity against human SR cells at 10 uM; format: functional; settings: read-out: GI
HOP-92 [19] = experiment: Cytotoxicity against human HOP92 cells at 10 uM; format: functional; settings: read-out: GI
LOX IMVI [20] = experiment: Cytotoxicity against human LOXIMVI cells at 10 uM; format: functional; settings: read-out: GI
BT-549 = experiment: Cytotoxicity against human BT549 cells; format: functional
M14 = experiment: Cytotoxicity against human M14 cells; format: functional
MDA-MB-435 = experiment: Cytotoxicity against human MDA-MB-435 cells; format: functional
MOLT-4 [21] = experiment: Cytotoxicity against human MOLT4 cells at 10 uM; format: functional; settings: read-out: GI
T47D [22] = experiment: Cytotoxicity against human T47D cells; format: functional
OVCAR-8 = experiment: Cytotoxicity against human OVCAR8 cells; format: functional
[23] = Cytotoxicity against human OVCAR4 cells; format: functional
NCI-H460 [24] = experiment: Cytotoxicity against human NCI-H460 cells; format: functional
KM12 [25] = experiment: Cytotoxicity against human KM12 cells at 10 uM; format: functional; settings: read-out: GI
SK-MEL-2 [26] = experiment: Cytotoxicity against human SK-MEL-2 cells; format: functional
SF-268 [27] = experiment: Cytotoxicity against human SF268 cells; format: functional
Malme-3M = experiment: Cytotoxicity against human MALME-3M cells; format: functional
K562 [28] = experiment: Cytotoxicity against human K562 cells; format: functional
SK-MEL-28 = experiment: Cytotoxicity against human SK-MEL-28 cells; format: functional
SF-539 = experiment: Cytotoxicity against human SF539 cells; format: functional
[29] = Cytotoxicity against human Hs 578T cells at 10 uM; format: functional; settings: read-out: GI
T47D [30] = experiment: Cytotoxicity against human T47D cells at 10 uM; format: functional; settings: read-out: GI
DU-145 = experiment: Cytotoxicity against human DU145 cells at 10 uM; format: functional; settings: read-out: GI
UACC-62 [31] = experiment: Cytotoxicity against human UACC62 cells; format: functional
SF-268 [32] = experiment: Cytotoxicity against human SF268 cells at 10 uM; format: functional; settings: read-out: GI
[33] = Cytotoxicity against human Hs 578T cells; format: functional
HT-29 = experiment: Cytotoxicity against human HT-29 cells at 10 uM; format: functional; settings: read-out: GI
IGROV-1 = experiment: Cytotoxicity against human IGROV1 cells; format: functional
MDA-MB-468 [34] = experiment: Cytotoxicity against human MDA-MB-468 cells at 10 uM; format: functional; settings: read-out: GI
[35] = Cytotoxicity against human UACC257 cells; format: functional
MCF7 [36] = experiment: Cytotoxicity against human MCF7 cells at 10 uM; format: functional; settings: read-out: GI
MOLT-4 [37] = experiment: Cytotoxicity against human MOLT4 cells; format: functional
PC-3 [38] = experiment: Cytotoxicity against human PC3 cells; format: functional
MDA-MB-231 = experiment: Cytotoxicity against human MDA-MB-231 cells; format: functional
RPMI-8226 [39] = experiment: Cytotoxicity against human RPMI8226 cells at 10 uM; format: functional; settings: read-out: GI
OVCAR-3 [40] = experiment: Cytotoxicity against human OVCAR3 cells at 10 uM; format: functional; settings: read-out: GI
KM12 [41] = experiment: Cytotoxicity against human KM12 cells; format: functional
OVCAR-3 [42] = experiment: Cytotoxicity against human OVCAR3 cells; format: functional
Carbonic anhydrase 9 = Carbonic anhydrase 9 (Homo sapiens, UniProt Q16790)
[43] = read-out: LC50 (the source's name)

## Cc1cc(S(=O)(=O)NC(=N)Nc2ccc(S(N)(=O)=O)cc2)c(SCc2ccc(C(F)(F)F)cc2)cc1Cl
CCRF-CEM
  GI50: 3.8 µM
  TGI: 15.2 µM
CCRF-CEM; [43]
  CC50: 86.2 µM
HL-60(TB) [1]
  inhibition of growth at 10 µM: 66%
HCT-116
  GI50: 4 µM
  TGI: 15.4 µM
HCT-116; [43]
  CC50: 45.9 µM
SW-620
  inhibition of growth at 10 µM: 12%
SNB-75 [2]
  GI50: 2.7 µM
  TGI: 17.4 µM
SNB-75 [2]; [43]
  CC50: 66.1 µM
SR [3]
  GI50: 2.1 µM
  TGI: 5.9 µM
SR [3]; [43]
  CC50: > 100 µM
A549
  inhibition of growth at 10 µM: 32%
SNB-75 [4]
  inhibition of growth at 10 µM: 71%
HOP-92 [5]
  GI50: 2.7 µM
  TGI: 8.6 µM
HOP-92 [5]; [43]
  CC50: 33.9 µM
HL-60(TB) [6]
  GI50: 2.1 µM
  TGI: 5.5 µM
HL-60(TB) [6]; [43]
  CC50: 34.5 µM
NCI/ADR-RES
  growth inhibition (GI): inactive
SK-MEL-2 [7]
  inhibition of growth at 10 µM: 43%
A498 [8]
  inhibition of growth at 10 µM: 15%
LOX IMVI [9]
  GI50: 4.9 µM
  TGI: 17.7 µM
LOX IMVI [9]; [43]
  CC50: 48.4 µM
HCC 2998
  GI50: 3.9 µM
  TGI: 13.8 µM
HCC 2998; [43]
  CC50: 46.2 µM
NCI-H522
  GI50: 3.9 µM
  TGI: 16.3 µM
NCI-H522; [43]
  CC50: 48.5 µM
NCI-H460 [10]
  inhibition of growth at 10 µM: 21%
A498 [11]
  GI50: 4.6 µM
  TGI: 21.1 µM
A498 [11]; [43]
  CC50: 53.7 µM
UACC-62 [12]
  inhibition of growth at 10 µM: 49%
COLO 205
  GI50: 4.4 µM
  TGI: 17.7 µM
COLO 205; [43]
  CC50: 80.6 µM
K562 [13]
  inhibition of growth at 10 µM: 64%
MDA-MB-468 [14]
  GI50: 2.7 µM
  TGI: 15 µM
MDA-MB-468 [14]; [43]
  CC50: 81.6 µM
SNB-19
  GI50: 5 µM
  TGI: 21.5 µM
SNB-19; [43]
  CC50: 61.1 µM
RPMI-8226 [15]
  GI50: 3.1 µM
  TGI: 11 µM
RPMI-8226 [15]; [43]
  CC50: > 100 µM
PC-3 [16]
  inhibition of growth at 10 µM: 74%
MCF7 [17]
  GI50: 2.9 µM
  TGI: 14.1 µM
MCF7 [17]; [43]
  CC50: 69.7 µM
SR [18]
  inhibition of growth at 10 µM: 72%
HOP-92 [19]
  inhibition of growth at 10 µM: 58%
LOX IMVI [20]
  inhibition of growth at 10 µM: 29%
BT-549
  GI50: 4.6 µM
  TGI: 18.5 µM
BT-549; [43]
  CC50: 58 µM
M14
  GI50: 7.3 µM
  TGI: 22 µM
M14; [43]
  CC50: 56.3 µM
MDA-MB-435
  GI50: 3.8 µM
  TGI: 14.8 µM
MDA-MB-435; [43]
  CC50: 46.1 µM
MOLT-4 [21]
  inhibition of growth at 10 µM: 60%
T47D [22]
  GI50: 5.1 µM
  TGI: 22.8 µM
T47D [22]; [43]
  CC50: 95.8 µM
OVCAR-8
  GI50: 4.6 µM
  TGI: 22.9 µM
OVCAR-8; [43]
  CC50: 87.6 µM
[23]; OVCAR-4
  GI50: 3.9 µM
  TGI: 25.1 µM
[23]; OVCAR-4, read-out: LC50 (the source's name)
  CC50: > 100 µM
NCI-H460 [24]
  GI50: 4.2 µM
  TGI: 18.5 µM
NCI-H460 [24]; [43]
  CC50: 90 µM
KM12 [25]
  inhibition of growth at 10 µM: 50%
SK-MEL-2 [26]
  GI50: 2.4 µM
  TGI: 6.3 µM
SK-MEL-2 [26]; [43]
  CC50: 25.3 µM
SF-268 [27]
  GI50: 5.5 µM
  TGI: 21.2 µM
SF-268 [27]; [43]
  CC50: 64.8 µM
Malme-3M
  GI50: 6.7 µM
  TGI: 21 µM
Malme-3M; [43]
  CC50: 52.5 µM
K562 [28]
  GI50: 3.6 µM
  TGI: 21.1 µM
K562 [28]; [43]
  CC50: > 100 µM
SK-MEL-28
  GI50: 4.2 µM
  TGI: 15.6 µM
SK-MEL-28; [43]
  CC50: 46.6 µM
SF-539
  GI50: 4.8 µM
  TGI: 18.3 µM
SF-539; [43]
  CC50: 45.1 µM
[29]
  inhibition of growth at 10 µM: 20%
T47D [30]
  inhibition of growth at 10 µM: 58%
DU-145
  inhibition of growth at 10 µM: 9%
UACC-62 [31]
  GI50: 2.6 µM
  TGI: 10.4 µM
UACC-62 [31]; [43]
  CC50: 33 µM
SF-268 [32]
  inhibition of growth at 10 µM: 31%
[33]
  GI50: 3.7 µM
  TGI: 24.6 µM
[33]; [43]
  CC50: > 100 µM
HT-29
  inhibition of growth at 10 µM: 22%
IGROV-1
  GI50: 5.8 µM
  TGI: 23.3 µM
IGROV-1; [43]
  CC50: 93 µM
MDA-MB-468 [34]
  inhibition of growth at 10 µM: 63%
[35]; UACC-257
  GI50: 3.6 µM
  TGI: 15.2 µM
[35]; UACC-257, read-out: LC50 (the source's name)
  CC50: 41.1 µM
MCF7 [36]
  inhibition of growth at 10 µM: 69%
MOLT-4 [37]
  GI50: 2.8 µM
  TGI: 11.2 µM
MOLT-4 [37]; [43]
  CC50: > 100 µM
PC-3 [38]
  GI50: 3.7 µM
  TGI: 13.7 µM
PC-3 [38]; [43]
  CC50: 40.9 µM
MDA-MB-231
  GI50: 2.5 µM
  TGI: 11.1 µM
MDA-MB-231; [43]
  CC50: 37 µM
RPMI-8226 [39]
  inhibition of growth at 10 µM: 57%
OVCAR-3 [40]
  inhibition of growth at 10 µM: 50%
KM12 [41]
  GI50: 3.1 µM
  TGI: 10.9 µM
KM12 [41]; [43]
  CC50: 40.2 µM
OVCAR-3 [42]
  GI50: 3.9 µM
  TGI: 14 µM
OVCAR-3 [42]; [43]
  CC50: 39 µM

## Cc1cc(S(=O)(=O)NC(=N)Nc2ccccc2S(N)(=O)=O)c(SCc2cccc3ccccc23)cc1Cl
Carbonic anhydrase 9
  Ki: 0.138 µM

## Cc1cc(S(=O)(=O)NC(=N)NCc2ccc(S(N)(=O)=O)cc2)c(SCc2cccc(C(F)(F)F)c2)cc1Cl
Carbonic anhydrase 9
  Ki: 0.017 µM

## Cc1cc(S(=O)(=O)NC(=N)NCc2ccc(S(N)(=O)=O)cc2)c(SCc2cc(=O)[nH]c3ccccc23)cc1Cl
Carbonic anhydrase 9
  Ki: 0.31 µM
